According to EP2311457A1, “Pharmaceutical compositions for treating infections with drug resistant mycobacteria” (priority 2009, dated 2011):
In brackets after ≈: the same amount, converted by molar mass.

What follows are compounds tested on Mtb H37Rv ATCC 272945 (assay: Drug susceptibility testing, radiometric MIC determination (BACTEC 460TB)). Settings: Mycobacterium tuberculosis, ATCC272945|H37RV, read-out: minimal inhibitory concentrations.
Method: Drug susceptibility testing (DST) was performed with the broth-based radiometric BACTEC 460TB system (Becton Dickinson Diagnostic Systems, Sparks, MD) which is considered the laboratory "gold standard". The standard protocol for DST and determination of MICs was strictly followed as recommended by the manufacturers.

SMILES | MIC
Clc1ccc(NN=Cc2ccc(OCc3ccccc3)cn2)nn1 [PH22-51, 5-benzyloxypyridine-2-aldehyde-6'-chloro-3'-pyridazinylhydrazone] | 1 µg/mL (≈ 2.94 µM)
C(=NNc1ncnc2ccccc12)c1ccc(OCc2ccccc2)cn1 [PH22-52, 5-benzyloxypyridine-2-aldehyde-4'-quinazolinylhydrazone] | 1 to 5 µg/mL (≈ 2.81 to 14.1 µM)
C(=NNc1ccccn1)c1ccc(OCc2ccccc2)cn1 [PH22-49, 5-benzyloxypyridine-2-aldehyde-2'-pyridylhydrazone] | 5 µg/mL (≈ 16.4 µM)
Cc1cccc(NN=Cc2ccccn2)n1 [PH22-31, pyridine-2-aldehyde-6'-methyl-2'-pyridylhydrazone] | < 1 µg/mL
C(=NNc1nncc2ccccc12)c1ccc(OCc2ccccc2)cn1 [PH22-6, 5-benzyloxypyridine-2-aldehyde-1'-phthalazinylhydrazone] | 5 µg/mL (≈ 14.1 µM)
Cc1ccc(C=NNc2ccc3ccccc3n2)nc1 [PH22-14, 5-methylpyridine-2-aldehyde-2'-quinolylhydrazone] | 0.5 µg/mL (≈ 1.91 µM)
Cc1ccc(C=NNc2nncc3ccccc23)nc1 [PH22-16, 5-methyl-pyridine-2-aldehyde-1'-phthalazinylhydrazone] | < 1 µg/mL
CCc1ccc(C=NNc2cc(OC)ncn2)nc1 [PH22-33, 5-ethylpyridine-2-aldehyde-6'-methoxy-4'-pyrimidylhydrazone] | < 0.125 µg/mL
c1ccc(C(=NNc2ccc3ccccc3n2)c2ccccn2)cc1 [PH22-15, 2-benzoylpyridine-2'-quinolylhydrazone] | 0.25 µg/mL (≈ 0.771 µM)
c1ccc(C(=NNc2nncc3ccccc23)c2ccccn2)cc1 [PH22-22, 2-benzoylpyridine-1'-phthalazinylhydrazone] | 5 µg/mL (≈ 15.4 µM)

The compounds below were run on Murine bone marrow derived macrophages (assay: not given). Settings: not given.

SMILES | toxicity as measured by MTT assay
CCc1ccc(C=NNc2cc(OC)ncn2)nc1 [PH22-33, 5-ethylpyridine-2-aldehyde-6'-methoxy-4'-pyrimidylhydrazone] | No toxicity was observed
